Data published in US20130165641A1, “6,11-BRIDGED BIARYL MACROLIDES” (Enanta Pharmaceuticals, Inc., priority 2007, published 2013).
Converted amounts (≈) assume the structure as drawn.

What was measured:
H. influenzae = test: MIC by micro-dilution method, H. influenzae isolates; type: cell-based, Haemophilus influenzae; settings: for MIC H. influenzae 33929: H. influenzae isolate 33929; for MIC H. influenzae 33929 / MIC H. influenzae 49247: examples of U.S. Pat. No. 6,878,691 for reference; for MIC H. influenzae 49247: H. influenzae isolate 49247
Experimental: Susceptibility tests can be used to quantitatively measure the in vitro activity of an antimicrobial agent against a given bacterial isolate. Compounds are tested for in vitro antibacterial activity by a micro-dilution method. Minimal Inhibitory Concentration (MIC) is determined in 96 well microtiter plates utilizing the appropriate broth medium for the observed bacterial isolates. […] The diluted compounds (2 μl/well) are then transferred into sterile, uninoculated medium (0.2 mL) by use of a 96 fixed tip-pipetting station. The inoculum for each bacterial strain is standardized to approximately 5×10^5 CFU/mL by optical comparison to a 0.5 McFarland turbidity standard. The plates are inoculated with 10 μl/well of adjusted bacterial inoculum. The 96 well plates are covered and incubated at 35+/−2° C. for 24 hours in ambient air environment. Following incubation, plate wells are visually examined by Optical Density measurement for the presence of growth (turbidity). The lowest concentration of an antimicrobial agent at which no visible growth occurs is defined as the MIC.
All in vitro testing follows the guidelines described in the Approved Standards M7-A7 protocol, published by the Clinical Laboratory Standards Institute (CLSI).

MRSA = test: MIC by micro-dilution method, MRSA isolates; type: cell-based, Staphylococcus aureus; settings: MRSA isolate 33591; examples of U.S. Pat. No. 6,878,691 for reference
In short: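 CLSI M7-A7 broth microdilution with inoculum about 5×10^5 CFU/mL, in broth suited to each isolate. Plates incubated 24 h at 35±2 °C in ambient air. MIC is the lowest concentration without visible growth, judged by optical density.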

[1] = Tissue accumulation of Compound 1 at the site of infection (infected skin tissue); settings: mouse, po, 50 mg/kg
[2] = Animal model of infection of Compound 4: MPT, ED50; type: in vivo, mice; settings: Mus musculus, MPT (mouse protection test model)
[3] = Animal model of infection of Compound 4: RLI, 2Log Red; type: in vivo, rats; settings: RLI (rat lung infection model), ED50
[4] = Rat PK of amino acid prodrug after IV/PO administration; type: in vivo; settings: plasma, 10 mg/kg IV, prodrug itself, read-out: AUC0-∝

Compound | MIC H. influenzae 33929 (H. influenzae) | MIC H. influenzae 49247 (H. influenzae) | MIC MRSA 33591 (MRSA) | MIC (H. influenzae; H. influenzae 33929) | MIC (H. influenzae; H. influenzae 49247) | also measured
CC[C@H]1OC(=O)[C@@](C)(F)C(=O)[C@H](C)[C@@H](O[C@@H]2O[C@H](C)C[C@H](N(C)C)[C@H]2O)[C@@]2(C)C[C@@H](C)C(=NC(C)=O)[C@H](C)[C@@H](OC/C(=N\OCc3ccc(-c4csnn4)cc3)CO2)[C@]1(C)O [Compound 219, reference compound] | 4 µg/mL (≈ 4.57 µM) | 4 µg/mL (≈ 4.57 µM) | 32 µg/mL (≈ 36.5 µM) |  |  | 
CCC(=O)/N=C1\[C@H](C)C[C@@]2(C)OC/C(=N/OCc3ccc(-c4nc(N)cs4)cn3)CO[C@H]([C@H]1C)[C@](C)(O)[C@@H](CC)OC(=O)[C@@](C)(F)C(=O)[C@H](C)[C@H]2O[C@@H]1O[C@H](C)C[C@H](N(C)C)[C@H]1O [Compound 1] |  |  |  |  |  | AUC(0-inf) ([1]; infected skin abscess): 617000 µg·h/mL; AUC(0-t) ([1]; infected skin abscess): 257000 µg·h/mL; Cmax ([1]; infected skin abscess): 9030 µg/mL; AUC(0-inf) ([1]; plasma): 24500 µg·h/mL; AUC(0-t) ([1]; plasma): 24400 µg·h/mL; Cmax ([1]; plasma): 5120 µg/mL; AUC(0-inf) ([1]; uninfected skin): 66600 µg·h/mL; AUC(0-t) ([1]; uninfected skin): 54600 µg·h/mL; Cmax ([1]; uninfected skin): 3800 µg/mL
CC[C@H]1OC(=O)[C@H](C)C(=O)[C@H](C)[C@@H](O[C@@H]2O[C@H](C)C[C@H](N(C)C)[C@H]2O)[C@](C)(OC)C[C@@H](C)C(=O)[C@H](C)[C@H]2N(CCCCn3cnc(-c4cccnc4)c3)C(=O)O[C@]12C [Telithromycin, telithromycin] |  |  |  |  |  | ED50 ([2]; S. aureus Smith): 11 mg/kg; ED50 ([2]; S. pneumoniae 7701): 10 mg/kg; 2Log Red ([3]; H. influenzae 1435): 49 mg/kg; 2Log Red ([3]; H. influenzae 3643): 78 mg/kg; 2Log Red ([3]; H. influenzae S1280): 56 mg/kg
CCC(=O)/N=C1\[C@H](C)C[C@@]2(C)OC/C(=N/OCc3ccc(-c4nc(NC(=O)[C@@H](N)CC(C)C)cs4)cn3)CO[C@H]([C@H]1C)[C@](C)(O)[C@@H](CC)OC(=O)[C@@](C)(F)C(=O)[C@H](C)[C@H]2O[C@@H]1O[C@H](C)C[C@H](N(C)C)[C@H]1O [Compounds 6] |  |  |  |  |  | AUC [4]: 0.21 µg·h/mL
CCC1OC(=O)C(C)C(=O)C(C)C(OC2OC(C)CC(N(C)C)C2O)C2(C)CC(C)C(=O)C(C)C(OCC(=NOCc3csc(-c4cccc(N)n4)n3)CO2)C1(C)O (stereo not shown) [Example 71] |  |  |  | 2 µg/mL (≈ 2.4 µM) |  | 
CCC1OC(=O)C(C)C(=O)C(C)C(OC2OC(C)CC(N(C)C)C2O)C2(C)CC(C)C(=NC(C)=O)C(C)C(OCC(=NOCc3coc(-c4cccc(N)n4)n3)CO2)C1(C)O (stereo not shown) [Example 40] |  |  |  | 2 µg/mL (≈ 2.33 µM) | 2 µg/mL (≈ 2.33 µM) | 
CCC1OC(=O)C(C)(F)C(=O)C(C)C(OC2OC(C)CC(N(C)C)C2O)C2(C)CC(C)C(=O)C(C)C(OCC(=NOCc3cnc(-c4nc(N)ns4)cn3)CO2)C1(C)O (stereo not shown) [Example 64] |  |  |  | 2 µg/mL (≈ 2.35 µM) | 1 µg/mL (≈ 1.17 µM) | 
CCC1OC(=O)C(C)C(=O)C(C)C(OC2OC(C)CC(N(C)C)C2O)C2(C)CC(C)C(=O)C(C)C(OCC(=NOCc3ccc(-c4nc(N)ns4)cc3)CO2)C1(C)O (stereo not shown) [Example 44] |  |  |  | 2 µg/mL (≈ 2.4 µM) | 1 µg/mL (≈ 1.2 µM) | 
CCC1OC(=O)C(C)(F)C(=O)C(C)C(OC2OC(C)CC(N(C)C)C2O)C2(C)CC(C)C(=O)C(C)C(OCC(=NOCc3ccc(-c4nc(N)cs4)cn3)CO2)C1(C)O (stereo not shown) [Example 33] |  |  |  | 4 µg/mL (≈ 4.71 µM) | 2 µg/mL (≈ 2.35 µM) | 
CCC(=O)N=C1C(C)CC2(C)OCC(=NOCc3cnc(-c4nsc(N)n4)cn3)COC(C1C)C(C)(O)C(CC)OC(=O)C(C)(F)C(=O)C(C)C2OC1OC(C)CC(N(C)C)C1O (stereo not shown) [Example 67] |  |  |  | 4 µg/mL (≈ 4.41 µM) | 2 µg/mL (≈ 2.2 µM) | 
CCC1OC(=O)C(C)(F)C(=O)C(C)C(OC2OC(C)CC(N(C)C)C2O)C2(C)CC(C)C(=O)C(C)C(OCC(=NOCc3ccc(-c4nc(N)no4)cn3)CO2)C1(C)O (stereo not shown) [Example 43] |  |  |  | 2 µg/mL (≈ 2.4 µM) | 2 µg/mL (≈ 2.4 µM) | 
CCC1OC(=O)C(C)C(=O)C(C)C(OC2OC(C)CC(N(C)C)C2O)C2(C)CC(C)C(=O)C(C)C(OCC(=NOCc3ccc(-c4nc(N)no4)cc3)CO2)C1(C)O (stereo not shown) [Example 42] |  |  |  | 2 µg/mL (≈ 2.45 µM) | 1 µg/mL (≈ 1.23 µM) | 
CCC1OC(=O)C(C)C(=O)C(C)C(OC2OC(C)CC(N(C)C)C2O)C2(C)CC(C)C(=O)C(C)C(OCC(=NOCc3cnc(-c4nsc(N)n4)cn3)CO2)C1(C)O (stereo not shown) [Example 68] |  |  |  | 2 µg/mL (≈ 2.4 µM) | 2 µg/mL (≈ 2.4 µM) | 
CCC1OC(=O)C(C)C(=O)C(C)C(OC2OC(C)CC(N(C)C)C2O)C2(C)CC(C)C(=NC(C)=O)C(C)C(OCC(=NOCc3cnc(-c4cccc(N)n4)s3)CO2)C1(C)O (stereo not shown) [Example 37] |  |  |  | 4 µg/mL (≈ 4.58 µM) | 2 µg/mL (≈ 2.29 µM) | 

The next lines start with results.

MIC H. influenzae 33929 (H. influenzae) | MIC H. influenzae 49247 (H. influenzae) | MIC MRSA 33591 (MRSA) | Compound | MIC (H. influenzae; H. influenzae 33929) | MIC (H. influenzae; H. influenzae 49247) | also measured
8 µg/mL (≈ 9.39 µM) | 8 µg/mL (≈ 9.39 µM) | 64 µg/mL (≈ 75.1 µM) | CC[C@H]1OC(=O)[C@H](C)C(=O)[C@H](C)[C@@H](O[C@@H]2O[C@H](C)C[C@H](N(C)C)[C@H]2O)[C@@]2(C)C[C@@H](C)C(=NC(C)=O)[C@H](C)[C@@H](OC/C(=N\OCc3ccc(-c4ncccn4)cc3)CO2)[C@]1(C)O [Compound 193, reference compound] |  |  | 
8 µg/mL (≈ 9.31 µM) | 8 µg/mL (≈ 9.31 µM) | >64 µg/mL | CC[C@H]1OC(=O)[C@H](C)C(=O)[C@H](C)[C@@H](O[C@@H]2O[C@H](C)C[C@H](N(C)C)[C@H]2O)[C@@]2(C)C[C@@H](C)C(=NC(C)=O)[C@H](C)[C@@H](OC/C(=N\OCc3cnc(-n4cccn4)c(F)c3)CO2)[C@]1(C)O [Compound 259, reference compound] |  |  | 
8 µg/mL (≈ 9.13 µM) | 8 µg/mL (≈ 9.13 µM) | 32 µg/mL (≈ 36.5 µM) | CC[C@H]1OC(=O)[C@@](C)(F)C(=O)[C@H](C)[C@@H](O[C@@H]2O[C@H](C)C[C@H](N(C)C)[C@H]2O)[C@@]2(C)C[C@@H](C)C(=NC(C)=O)[C@H](C)[C@@H](OC/C(=N\OCc3ccc(-c4cnccn4)s3)CO2)[C@]1(C)O [Compound 141, reference compound] |  |  | 
4 µg/mL (≈ 4.49 µM) | 4 µg/mL (≈ 4.49 µM) | 4 µg/mL (≈ 4.49 µM) | CC[C@H]1OC(=O)[C@@](C)(F)C(=O)[C@H](C)[C@@H](O[C@@H]2O[C@H](C)C[C@H](N(C)C)[C@H]2O)[C@@]2(C)C[C@@H](C)C(=NC(C)=O)[C@H](C)[C@@H](OC/C(=N\OCc3ccc(-c4cccc(N)n4)s3)CO2)[C@]1(C)O [Compound 173, reference compound] |  |  | 
4 µg/mL (≈ 4.67 µM) | 8 µg/mL (≈ 9.33 µM) | >64 µg/mL | CC[C@H]1OC(=O)[C@H](C)C(=O)[C@H](C)[C@@H](O[C@@H]2O[C@H](C)C[C@H](N(C)C)[C@H]2O)[C@@]2(C)C[C@@H](C)C(=NC(C)=O)[C@H](C)[C@@H](OC/C(=N\OCc3ccc(-c4cccs4)nc3)CO2)[C@]1(C)O [Compound 205, reference compound] |  |  | 
32 µg/mL (≈ 35 µM) | 32 µg/mL (≈ 35 µM) | >64 µg/mL | CCNC(=O)c1cccc(-c2cc(CO/N=C3\CO[C@@H]4[C@@H](C)C(=NC(C)=O)[C@H](C)C[C@@](C)(OC3)[C@H](O[C@@H]3O[C@H](C)C[C@H](N(C)C)[C@H]3O)[C@@H](C)C(=O)[C@@H](C)C(=O)O[C@H](CC)[C@@]4(C)O)on2)n1 [Compound 195, reference compound] |  |  | 
4 µg/mL (≈ 4.66 µM) | 8 µg/mL (≈ 9.32 µM) | 64 µg/mL (≈ 74.6 µM) | CC[C@H]1OC(=O)[C@H](C)C(=O)[C@H](C)[C@@H](O[C@@H]2O[C@H](C)C[C@H](N(C)C)[C@H]2O)[C@@]2(C)C[C@@H](C)C(=NC(C)=O)[C@H](C)[C@@H](OC/C(=N\OCc3ccc(-c4nccs4)nc3)CO2)[C@]1(C)O [Compound 212, reference compound] |  |  | 
4 µg/mL (≈ 4.58 µM) | 4 µg/mL (≈ 4.58 µM) | >64 µg/mL | CC[C@H]1OC(=O)[C@H](C)C(=O)[C@H](C)[C@@H](O[C@@H]2O[C@H](C)C[C@H](N(C)C)[C@H]2O)[C@@]2(C)C[C@@H](C)C(=NC(C)=O)[C@H](C)[C@@H](OC/C(=N\OCc3ccc(-c4nnc(N)s4)nc3)CO2)[C@]1(C)O [Compound 234, reference compound] |  |  | 
4 µg/mL (≈ 4.66 µM) | 8 µg/mL (≈ 9.31 µM) | 64 µg/mL (≈ 74.5 µM) | CC[C@H]1OC(=O)[C@@](C)(F)C(=O)[C@H](C)[C@@H](O[C@@H]2O[C@H](C)C[C@H](N(C)C)[C@H]2O)[C@@]2(C)C[C@@H](C)C(=NC(C)=O)[C@H](C)[C@@H](OC/C(=N\OCc3ccc(-n4cccn4)nc3)CO2)[C@]1(C)O [Compound 214, reference compound] |  |  | 
4 µg/mL (≈ 4.61 µM) | 4 µg/mL (≈ 4.61 µM) | 32 µg/mL (≈ 36.9 µM) | CC[C@H]1OC(=O)[C@H](C)C(=O)[C@H](C)[C@@H](O[C@@H]2O[C@H](C)C[C@H](N(C)C)[C@H]2O)[C@@]2(C)C[C@@H](C)C(=NC(C)=O)[C@H](C)[C@@H](OC/C(=N\OCc3ccc(-c4cccc(N)n4)nc3)CO2)[C@]1(C)O [Compound 227, reference compound] |  |  | 
